Assays:
[1] = test system: T-helper/inducer lymphocyte subset (CD3/CD4); assay: FastImmune CD69 T-helper/inducer lymphocyte activation in whole blood cultures; format: cell-based, human; settings: 10 ng/ml
Description: (§1) In vitro lymphocyte activation represents a standard approach for evaluating cell-mediated responses to a variety of stimuli including immunostimulatory botanical extracts. The FastImmune assay system monitors the expression of the early activation marker CD69 in whole blood after stimulation with extracts.
(§2) T-lymphocyte subsets can be identified and quantified by using fluorochrome-labeled antibody combinations such as CD4/CD69/CD3 and CD8/CD69/CD3. CD4 antigen is expressed on the T-helper/inducer lymphocyte subset (CD3/CD4). CD8 antigen is expressed on the human suppressor/cytotoxic T-lymphocyte subset (CD3/CD8). Once activated both CD4 and CD8 positive T cells express CD69.
(§3) Blood samples were collected from healthy volunteers and 250 μl blood sample were incubated in 48-well plates with increasing concentrations of compound along with appropriate positive controls (recommended by Becton Dickinson Biosciences, CA) for each subset. CD2/CD2R and Phorbol ester (PMA) were used as controls for T-lymphocyte activation studies. […] T2CA, a characterized polysaccharide complex evaluated in these assays was also used as a control. The blood cultures were incubated at 37° C. in a CO2 incubator for 24 h. […] The percentage of activated T-cell subsets, B-cells and NK-cells and the percentage increase over untreated control were calculated and plotted against compound concentrations.

[2] = test system: suppressor/cytotoxic T-lymphocyte subset (CD3/CD8); assay: FastImmune CD69 T-cytotoxic/suppressor lymphocyte activation in whole blood cultures; format: cell-based, human; settings: 10 ng/ml
Description: as §1, §2, §3

[3] = test system: liver cancer BEL-7404 cell line cells; assay: MTT cell viability assay
[4] = increase over untreated control

| Compound | T-helper/inducer Lymphocyte Activation, Activation (%) ([1]; 24 h blood culture) | T-helper/inducer Lymphocyte Activation, % Increase [1, 4] [%] | T-cytotoxic/suppressor Lymphocyte Activation, Activation (%) ([2]; 24 h blood culture) | T-cytotoxic/suppressor Lymphocyte Activation, % Increase [2, 4] [%] | cell growth inhibition ([3]; 10 μg/ml of HNK, 72 hour treatment, BEL-7404 cells) [%] | inhibition ([3]; 5 mcg/ml of HNK alone, BEL-7404 cells, FIG. 1) | cytotoxicity on BEL-7404 cells (in words) ([3]; 72 hour treatment, single agents) |
| --- | --- | --- | --- | --- | --- | --- | --- |
| CCCCCCCCCCCCCC(=O)O[C@@H]1[C@@H](C)[C@@]2(O)[C@@H](C=C(CO)C[C@]3(O)C(=O)C(C)=C[C@@H]23)[C@@H]2C(C)(C)[C@]12OC(C)=O [PMA, Phorbol ester] | 5.93 | 120.86 | 5.68 | 54.45 |  |  |  |
| C=CCc1ccc(O)c(-c2ccc(O)c(CC=C)c2)c1 [HNK, honokiol] |  |  |  |  | 68.7 | around 25% | cytotoxicity on BEL-7404 cells in a dose dependent manner |

— patent US8916541B2, “Synergistic combination of honokiol and modified citrus pectin in cancer therapy” (Better Health Publishing, Inc., priority 2011, dated 2014)
